Assay [1] has as its target Human α2δ-1 subunit of Cav2.2 calcium channel (Homo sapiens, UniProt P54289). The experiment in a line: biochemical. It is filed as binding.
For a further assay, the target named is Human μ-opioid receptor (Homo sapiens, UniProt P35372). The experiment in a line: biochemical. The class given is binding.

Drawing on patent US20220002314A1 (priority 2018, published 2022), this text covers Ki for four molecules.

Structures are written as SMILES.

What is called Ki is the equilibrium dissociation constant of an inhibitor or competing ligand from its target.

Sequence of Human α2δ-1 subunit of Cav2.2 calcium channel (P54289 25-1103): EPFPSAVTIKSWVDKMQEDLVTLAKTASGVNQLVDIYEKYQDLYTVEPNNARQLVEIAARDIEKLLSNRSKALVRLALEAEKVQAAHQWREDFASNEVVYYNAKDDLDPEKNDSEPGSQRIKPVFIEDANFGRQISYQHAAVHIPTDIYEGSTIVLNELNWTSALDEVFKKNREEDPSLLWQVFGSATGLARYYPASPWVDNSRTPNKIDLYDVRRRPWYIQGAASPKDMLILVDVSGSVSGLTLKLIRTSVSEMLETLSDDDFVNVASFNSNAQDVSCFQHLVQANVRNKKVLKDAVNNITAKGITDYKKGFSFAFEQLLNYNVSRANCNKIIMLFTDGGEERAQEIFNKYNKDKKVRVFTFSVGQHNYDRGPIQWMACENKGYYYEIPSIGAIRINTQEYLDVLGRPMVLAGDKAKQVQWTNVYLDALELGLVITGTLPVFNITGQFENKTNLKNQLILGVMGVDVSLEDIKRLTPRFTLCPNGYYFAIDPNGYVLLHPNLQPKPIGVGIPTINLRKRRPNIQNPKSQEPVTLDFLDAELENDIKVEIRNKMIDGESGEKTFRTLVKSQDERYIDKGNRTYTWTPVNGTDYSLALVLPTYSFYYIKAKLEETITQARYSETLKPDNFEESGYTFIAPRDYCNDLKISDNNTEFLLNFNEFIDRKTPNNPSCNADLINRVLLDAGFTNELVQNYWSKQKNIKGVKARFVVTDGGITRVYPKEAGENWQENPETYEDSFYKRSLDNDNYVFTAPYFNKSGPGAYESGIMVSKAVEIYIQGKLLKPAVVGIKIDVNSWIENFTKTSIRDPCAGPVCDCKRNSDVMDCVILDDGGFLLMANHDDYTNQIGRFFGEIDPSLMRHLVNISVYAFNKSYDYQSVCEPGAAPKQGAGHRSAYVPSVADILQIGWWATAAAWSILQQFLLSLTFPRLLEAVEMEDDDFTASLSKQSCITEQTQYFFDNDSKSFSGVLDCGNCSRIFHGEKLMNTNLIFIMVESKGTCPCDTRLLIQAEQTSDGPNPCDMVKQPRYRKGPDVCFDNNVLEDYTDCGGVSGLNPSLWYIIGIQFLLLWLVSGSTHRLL
Sequence of Human μ-opioid receptor (P35372 whole entry): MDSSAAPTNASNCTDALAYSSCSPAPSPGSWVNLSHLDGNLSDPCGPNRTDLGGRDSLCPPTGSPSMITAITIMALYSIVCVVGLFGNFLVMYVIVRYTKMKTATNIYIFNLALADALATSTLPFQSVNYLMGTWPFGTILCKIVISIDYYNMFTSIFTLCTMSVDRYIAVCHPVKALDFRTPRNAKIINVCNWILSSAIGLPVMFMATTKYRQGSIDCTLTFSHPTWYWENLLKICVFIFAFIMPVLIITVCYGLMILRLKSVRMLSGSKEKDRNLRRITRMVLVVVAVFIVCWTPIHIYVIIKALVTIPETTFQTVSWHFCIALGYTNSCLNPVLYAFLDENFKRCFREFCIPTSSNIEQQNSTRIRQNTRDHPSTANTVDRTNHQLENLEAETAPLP

Regarding `CCC[C@H](c1nc2cnc(C(F)(F)F)cc2c(=O)n1CC)N1CCN[C@H](C)C1` [Example 233, 3-Ethyl-2-((R)-1-((R)-3-methylpiperazin-1-yl)butyl)-6-(trifluoromethyl)pyrido[3,4-d]pyrimidin-4(3H)-one], the Ki in assay [1] is less than 500 nM; at Human μ-opioid receptor, more than 500 nM.

For `CCC[C@H](c1nc2cnc(C(F)(F)F)cc2c(=O)n1CC)N1CCN[C@@H](C)C1` [Example 234, 3-ethyl-2-((R)-1-((S)-3-methylpiperazin-1-yl)butyl)-6-(trifluoromethyl)pyrido[3,4-d]pyrimidin-4(3H)-one], the Ki was less than 500 nM in assay [1] and more than 500 nM at Human μ-opioid receptor.

On to `CCC[C@@H](c1nc2cnc(C(F)(F)F)cc2c(=O)n1CC)N1CCN[C@@H](C)C1` [Example 235, 3-ethyl-2-((S)-1-((S)-3-methylpiperazin-1-yl)butyl)-6-(trifluoromethyl)pyrido[3,4-d]pyrimidin-4(3H)-one], for which the inhibition constant (Ki) in assay [1] was more than 5000 nM; on Human μ-opioid receptor, more than 500 nM.

`CCC[C@H](c1nc2ccc(C(NC)c3ccccc3)cc2c(=O)n1CC)N1C[C@@H](C)N[C@@H](C)C1` (stereo partly drawn) [Example 236, 2-((R)-1-((3S,5R)-3,5-Dimethylpiperazin-1-yl)butyl)-3-ethyl-6-((methylamino)(phenyl)methyl)quinazolin-4(3H)-one]: the results for the Ki (in assay [1]; on Human μ-opioid receptor) were less than 500 nM and more than 500 nM, respectively.
